Experimental findings from patent US20070281935A1, “Use” (PFIZER INC., priority 2004, published 2007) are described below.

Holding throughout (type): in vivo
Assay [1] relates to cows. As to the kind of experiment: Liver triglyceride levels in transition cows (post-calving liver biopsies). The note with it: all treatment regimens (0.5 mg/kg); Days 5, 10 and 14 postcalving. Here is the method:
(§1) To determine negative energy balance, serum concentrations of NEFAs or ketone bodies, or levels of triglycerides in liver tissues, are measured. Higher than ‘normal’ levels of NEFA's and/or triglycerides and/or ketone bodies are indicators of negative energy balance. Levels considered ‘higher than normal’ or ‘excessive’ are: • NEFA's >800 μmol/L in serum. • Triglycerides >10% w/w in liver tissue. • Ketone bodies […] in serum. Determination of Changes in Blood Non-Esterified Fatty Acid (NEFA) Concentrations and Liver Triglycerides Levels:
(§2) Compounds were administered once or several times in the transition period at dose levels predicted to be effective by comparing results of in-vitro receptor affinity tests in laboratory species and pharmacokinetic evaluations in cattle. NEFA levels were determined via standard laboratory methods, for example, using the commercial WAKO NEFA kit (Wako Chemical Co., USA, Dallas, Tex., 994-75409), and liver triglyceride content was determined using the method as described in the literature (J. K. Drackley, J. J. Veenhuizen, M. J. Richard and J. W. Young, J Dairy Sci, 1991, 74, 4254)). […]
(§3) As soon as possible post-calving (˜30 minutes) the cow was transferred to the freestall barn for the next scheduled milking (6:00 hrs and 19:00 hrs). […] Pre and post-calving NEFA samples were analyzed using the WAKO NEFA-C test kit (#994-75409). […]

For assay [2], the system named is cows. Kind of assay: Changes in blood non-esterified fatty acid (NEFA) concentrations in transition cows. Here is the method: as §1, §2, §3
For another assay, the system named is Holstein cows. As to the kind of experiment: Milk yield and milk quality study in pregnant, non-lactating Holstein cows. The note with it: approximately 0.5 mg/kg subcutaneous on day of calving and day five post-calving. Here is the method: Machines to assay for milk protein, fat, or lactose content are commercially available (MilkoScan™ 50, MilkoScan™ 4000, MilkoScan™ FT 6000 available from Foss Group). Machines to assay for somatic cell content are also commercially available (Fossomatic™ FC, Fossomatic™ Minor available from Foss Group).
One hundred twenty four pregnant, non-lactating Holstein cows were allocated to two treatment groups (placebo and COMPOUND at approximately 0.5 mg/kg). Animals were allowed to calve, treated by subcutaneous injection on the day of calving and on day five post-calving. Disease events and daily milk production were recorded for the following sixty days. The average daily milk yield in the treated cows was increased from 41.8 to 43.2 kg/day (p=0.052). There was also a significant beneficial effect on milk quality (increased protein and lactose yield, decreased somatic cell count). Results are shown in the FIG. 3 and FIG. 4, where COMPOUND represents Compound Z.

The mark [3] stands for this setting: versus placebo, significant beneficial effect.

The structures appear in SMILES notation.

Consider `CC(C)(Oc1cccc([C@@H]2CCCN(C(=O)OCc3ccc(C(F)(F)F)cc3)C2)c1)C(=O)O` [Compound Z, (3S)-3-[3-(1-Carboxy-1-methyl-ethoxy)-phenyl]-piperidine-1-carboxylic acid 4-trifluoromethyl-benzyl ester], for which, in the assay on cows [1], the “liver triglyceride levels compared to placebo” value is recorded as “significantly lowered”. Besides, in the assay with cows [2] (all animals treated with Compound Z (T02, T03, T04; 0.5 mg/kg), from Day 1 (after calving) until Day 6 of the study), the “serum NEFA levels as compared to controls” value is given as “significantly lower”. Moreover, in the assay on cows [2] (treatment group T03 (0.5 mg/kg at calving and post partum eod 4 doses), all timepoints), the “serum NEFA levels compared to controls” value is “significantly lower”. In addition, the “average daily milk yield” value in the assay with Holstein cows (sixty days recording, placebo 41.8, p=0.052) is 43.2 kg/day. In the assay on Holstein cows (setting [3]), the “milk quality: lactose yield” value was “increased”, the “milk quality: protein yield” value was “increased” and the “milk quality: somatic cell count” value is on record as “decreased”.
